According to patent publication US20090081197A1 (Palatin Technologies, Inc., priority 2007, published 2009):
pEC50: −log10 of the molar value. Like-named read-outs stand apart in the source and are kept apart here. Positions of bridges follow the written chain, without caps; N, C: chain ends. Non-standard residues stand in square brackets, D forms with d. Residues, ends and D or L forms follow the SMILES beside them. No end group written: not given here. 2Nal = N[C@@H](Cc1ccc2ccccc2c1)C(=O)O; d2Nal = N[C@H](Cc1ccc2ccccc2c1)C(=O)O; Nle = CCCC[C@H](N)C(=O)O

What was measured:
MC4-R [1] = biological target: T1, MC4-R (Homo sapiens, UniProt P32245); assay: Competitive inhibition assay using [I^125]-NDP-α-MSH, hMC4-R membranes; assay type: binding; set-up: host or cells: TREx-293 (HEK-293 stably expressing Tet repressor); settings: 1 μM test compound; read-out: Inhibition at 1 μM (NDP-α-MSH) In Normal System, MC4-R
Method in brief: (§1)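 Tracer was 0.4 nM for MC3-R and MC5-R, 0.2 nM for MC4-R and 0.1 nM for MC1-R. Bound radioactivity was gamma-counted after filtration; values are triplicate means, with results below 0% reported as 0%.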

MC3-R [2] = biological target: T2, MC3-R (Homo sapiens, UniProt P41968); assay: cAMP functional activity assay in HEK-293 cells; assay type: cell-based; set-up: expressed in transfected cells; host or cells: HEK-293; settings: 1 μM concentration where stated
Protocol: (§2) General method for EC50 determination in functional activity assay. […] Data analysis and EC50 values were determined using nonlinear regression analysis with Prism Graph-Pad software.
(§3) Functional status. The agonist/antagonist status with respect to MC1-R, MC-3R, MC4-R and MC5-R of certain compounds of the invention was determined. Antagonistic activity was determined by measuring the inhibition of α-MSH-induced or NDP-α-MSH-induced cAMP levels following exposure to graded doses of compounds as in the preceding descriptions.

MC5-R [3] = biological target: T3, MC5-R (Homo sapiens, UniProt P33032); assay: cAMP functional activity assay in HEK-293 cells; assay type: cell-based; set-up: expressed in transfected cells; host or cells: HEK-293; settings: 1 μM concentration where stated
Protocol: as §2, §3

MC4-R [4] = biological target: T1, MC4-R; assay: Assay for neutral antagonist, Schild analysis (pA2) against NDP-α-MSH; assay type: cell-based; set-up: expressed in transfected cells; host or cells: HEK-293; settings: Schild analysis vs NDP-α-MSH; read-out: pA2 value as antagonist at MC4-R in a normal system (converted)
Protocol: Assay for Neutral Antagonist. […] These studies were carried out in HEK-293 cells expressing the MC4-R receptor. Cells were incubated with the compounds in the presence of the agonist NDP-α-MSH and the extent of antagonism was measured by the decrease in the level of intracellular cAMP. Screening the compounds for antagonists was done at a single concentration of NDP-α-MSH (1.0 nM) over a compound concentration range of 0.5-5000 nM.
Experimental details were similar to the analysis for agonistic activity described above. Briefly, cells were pre-incubated for 30 minutes with the test compounds at concentrations between 0.5 nM and 5000 nM. The cells were then stimulated with NDP-α-MSH at a concentration of 1 nM for 1 hour. For Schild analysis, the interactions were studied using at least 3 concentrations of the compounds, separated by a log unit, over a full range of the agonist (0.005-5000 nM). cAMP levels was measured in the cell lysates after appropriate dilution. Nonlinear regression analysis with Prism Graph-Pad software was used for Schild analysis and to obtain EC50 values. pA2 values were derived from the Schild plot of the data.

MC3-R [5] = biological target: T2, MC3-R; assay: Competitive inhibition assay using [I^125]-NDP-α-MSH, hMC3-R membranes; assay type: binding; set-up: expressed in transfected cells; settings: 1 μM test compound; read-out: Inhibition at 1 μM (NDP-α-MSH) In Normal System, MC3-R
Method in brief: as §1

MC4-R [6] = biological target: T1, MC4-R; assay: cAMP agonist stimulation, high receptor density system (10 ng/mL doxycycline); settings: for Efficacy/Intrinsic Activity: 10 ng/mL doxycycline, high receptor density hMC4-R system, NDP-α-MSH maximal cAMP = 1.0
MC5-R [7] = biological target: T3, MC5-R; assay: Competitive inhibition assay using [I^125]-NDP-α-MSH, hMC5-R membranes; assay type: binding; set-up: expressed in transfected cells; settings: 1 μM test compound; read-out: Inhibition at 1 μM (NDP-α-MSH) In Normal System, MC5-R
Method in brief: as §1

MC4-R [8] = biological target: T1, MC4-R; assay: cAMP agonist stimulation, low receptor density system (0.1 ng/mL doxycycline); settings: 0.1 ng/mL doxycycline, low receptor density hMC4-R system; NDP-α-MSH maximal cAMP = 1.0
[9] = IV and IP food intake and body weight change, rats; assay type: in vivo; settings: rat, 10 mg/kg, 24 hours
Protocol: IV and IP food intake and body weight change. Change in food intake and body weight was evaluated for selected compounds. Male Sprague-Dawley rats or male C57BL/6 mice were utilized. Animals were individually housed in conventional plexiglass hanging cages and maintained on a controlled 12 hour on/off light cycle. Water and powdered (LabDiet, 5P00 Prolab RMH 3000) or pelleted (Harlan Teklad 2018 18% Protein Rodent Diet) food was provided ad libitum. For 1 week before treatment, 24-hour food intake and body weight change was recorded to assess a baseline for the group during vehicle treatment. The rats were dosed IV with vehicle or selected compounds (0.5-3 mg/kg, and in some cases up to 10 mg/Kg) or dosed intraperitoneally (IP) with vehicle or selected compounds (0.5-10 mg/kg, and in some cases up to 50 mg/kg). Mice were dosed IP. The changes in body weight and food intake for the 24 hour period after dosing were determined. The changes in body weight and food intake for the 48 hour and 72 hour periods after dosing were also measured to determined reversal of changes in body weight and food intake effects back to baseline levels.

[10] = IP (and IN) food intake, mice; assay type: in vivo; settings: mouse, IP, 4 hours
Method in brief: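 Male Sprague-Dawley rats dosed IV (0.5-3, up to 10 mg/kg) or IP (0.5-10, up to 50 mg/kg); male C57BL/6 mice dosed IP. Change in food intake and body weight over 24 h post-dose versus 1-week vehicle baseline, with 48 and 72 h reversal checks.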

MC1-R [11] = biological target: T4, MC1-R (Mus musculus, UniProt Q01727); assay: cAMP functional activity assay in B-16 mouse melanoma cells; assay type: cell-based; settings: 1 μM concentration where stated
T4 construct: B-16 mouse melanoma cells (containing MC1-R); endogenous in cells
Protocol: as §2, §3

MC1-R [12] = biological target: T4, MC1-R; assay: Competitive inhibition assay using [I^125]-NDP-α-MSH, B-16 mouse melanoma cell membranes; assay type: binding; settings: 1 μM test compound; read-out: Inhibition at 1 μM (NDP-α-MSH) In Normal System, MC1-R
Method in brief: as §1

MC4-R [13] = biological target: T1, MC4-R; assay: cAMP functional activity assay in HEK-293 cells, normal system; assay type: cell-based; set-up: expressed in transfected cells; host or cells: HEK-293
[14] = Penile erection induction in male rats; assay type: in vivo; settings: rat, ICV
Method in brief: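 Male Sprague-Dawley rats (200-250 g), groups of 4-8, dosed IV or ICV at various doses and observed individually for penile erections. Only statistically relevant increases over vehicle-control mean PEs count as induction; IV responses below 1.0 PEs/rat treated as equivocal, some retested ICV.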

[15] = ICV food intake and body weight change; assay type: in vivo; settings: rat, 1 nmol
Method in brief: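 Rats fitted with intracerebroventricular cannulas and fed ad libitum got a single ICV dose of vehicle or compound (1-3 nmol). Food intake and body-weight change over the 24 h after dosing were compared with a 1-week vehicle baseline. Values at 48 h and 72 h were also recorded to follow return to baseline.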

human MC1-R = biological target: T5, human MC1-R (Homo sapiens, UniProt Q01726); assay: Competitive inhibition assay using [I^125]-NDP-α-MSH, human MC1-R (separate experiments); assay type: binding; settings: separate experiments with human MC1-R; read-out: Ki (nM) (NDP-α-MSH) in a normal system, human MC1-R
T5 construct: expressed in transfected cells

[16] = functional antagonists known not to cause PE response, cited from earlier work

T3 sequence (P33032 whole entry): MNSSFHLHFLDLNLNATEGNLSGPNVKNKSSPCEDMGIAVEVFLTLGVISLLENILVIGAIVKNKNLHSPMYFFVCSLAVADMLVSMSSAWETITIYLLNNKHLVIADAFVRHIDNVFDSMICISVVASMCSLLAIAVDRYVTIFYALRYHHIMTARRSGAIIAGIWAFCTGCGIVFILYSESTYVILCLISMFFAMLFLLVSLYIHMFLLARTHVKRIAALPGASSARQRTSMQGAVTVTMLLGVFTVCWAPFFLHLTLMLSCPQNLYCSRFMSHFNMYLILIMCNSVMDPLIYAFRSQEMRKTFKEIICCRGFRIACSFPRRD
T4 sequence (Q01727 whole entry): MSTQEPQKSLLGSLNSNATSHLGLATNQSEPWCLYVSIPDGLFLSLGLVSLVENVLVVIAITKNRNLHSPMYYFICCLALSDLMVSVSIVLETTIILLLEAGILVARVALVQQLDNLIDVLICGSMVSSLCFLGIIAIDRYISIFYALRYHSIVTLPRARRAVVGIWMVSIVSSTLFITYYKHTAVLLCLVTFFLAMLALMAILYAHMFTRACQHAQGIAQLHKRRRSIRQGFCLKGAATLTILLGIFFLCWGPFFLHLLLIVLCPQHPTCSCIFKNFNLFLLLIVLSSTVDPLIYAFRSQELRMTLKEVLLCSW
T2 sequence (P41968 whole entry): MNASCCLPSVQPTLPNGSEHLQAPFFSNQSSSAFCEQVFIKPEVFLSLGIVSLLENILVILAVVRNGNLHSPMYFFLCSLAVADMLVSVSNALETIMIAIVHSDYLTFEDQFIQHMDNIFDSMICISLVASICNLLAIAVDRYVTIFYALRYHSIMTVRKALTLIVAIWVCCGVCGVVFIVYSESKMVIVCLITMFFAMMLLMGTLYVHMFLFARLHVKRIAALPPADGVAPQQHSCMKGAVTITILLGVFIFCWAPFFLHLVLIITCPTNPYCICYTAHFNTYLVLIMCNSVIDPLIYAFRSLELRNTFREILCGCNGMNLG
T1 sequence (P32245 whole entry): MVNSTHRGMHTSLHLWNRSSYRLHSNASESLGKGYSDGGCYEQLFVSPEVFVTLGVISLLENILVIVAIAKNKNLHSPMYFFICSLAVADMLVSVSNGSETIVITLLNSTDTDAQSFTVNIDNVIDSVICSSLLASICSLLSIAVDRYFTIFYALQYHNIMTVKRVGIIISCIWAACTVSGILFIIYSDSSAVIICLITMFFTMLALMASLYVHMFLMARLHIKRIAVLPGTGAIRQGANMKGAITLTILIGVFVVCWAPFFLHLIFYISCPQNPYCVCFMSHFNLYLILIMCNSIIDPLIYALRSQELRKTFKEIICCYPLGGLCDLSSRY
T5 sequence (Q01726 whole entry): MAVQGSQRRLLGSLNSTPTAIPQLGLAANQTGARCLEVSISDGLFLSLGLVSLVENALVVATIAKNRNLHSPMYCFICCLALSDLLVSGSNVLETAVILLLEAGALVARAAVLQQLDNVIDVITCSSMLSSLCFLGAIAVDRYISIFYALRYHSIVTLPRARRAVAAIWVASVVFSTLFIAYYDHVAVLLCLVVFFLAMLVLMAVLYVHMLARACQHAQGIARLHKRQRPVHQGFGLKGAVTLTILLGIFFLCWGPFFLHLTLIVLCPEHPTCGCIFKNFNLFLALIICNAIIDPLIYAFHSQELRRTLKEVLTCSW

| Efficacy/Intrinsic Activity (MC4-R [6]) | Efficacy/Intrinsic Activity (MC4-R [8]) | Compound | inhibition at 1 µM (MC4-R [1]) [%] | Kb (MC4-R [4]) [nM] | inhibition at 1 µM (MC3-R [5]) [%] | inhibition at 1 µM (MC5-R [7]) [%] | inhibition at 1 µM (MC1-R [12]) [%] | Penile Erection ICV [16] | Penile Erection IV [16] | further results |
| --- | --- | --- | --- | --- | --- | --- | --- | --- | --- | --- |
| None | None | CCCC[C@H](NC(C)=O)C(=O)N[C@H]1CC(=O)NCCCC[C@@H](C(=O)O)NC(=O)[C@H](Cc2ccc3ccccc3c2)NC(=O)[C@H](CCCNC(=N)N)NC(=O)[C@@H](Cc2ccc3ccccc3c2)NC(=O)[C@H](Cc2c[nH]cn2)NC1=O [Example 34, Ac-Nle-cyclo(Asp-His-D-Nal 2-Arg-Nal 2-Lys)-OH] (Ac-[Nle]DH[d2Nal]R[2Nal]K-OH; lactam 2-7) | 100 | 7.94 | 98 | 100 | 102 | – | – | Penile Erection ICV [14]: No; PE efficacy ([14]; 3 nanomole): inactive; 24 hour increase in food intake [15]: 12 g; increase in body weight ([15]; 24 hours): 16 g; Ki (human MC1-R): 0.25 nM; functional status at MC4-R in cAMP assay (MC4-R [13]; at 1 nM dose): inactive |
| None | None | AGRP (83-132): AgRP (83-132); functional antagonist known not to cause PE response (SSRRCVRLHESCLGQQVPCCDPCATCYCRFFNAFCYCRKLGTAMNPCSRT; ends and bridges not checked; cysteine pairing not given here) [reference compound] | – | – | – | – | – | No | No | – |
| – | – | cyclo 2,7[Ac-Nle-Asp-His-D-Nal 2-Arg-Trp-Lys]-NH2 [SHU-9119] | – | – | – | – | – | No | No | – |

| Compound | Efficacy/Intrinsic Activity (MC4-R [6]) | Efficacy/Intrinsic Activity (MC4-R [8]) | inhibition at 1 µM (MC4-R [1]) [%] | Kb (MC4-R [4]) [nM] | inhibition at 1 µM (MC3-R [5]) [%] | inhibition at 1 µM (MC5-R [7]) [%] | inhibition at 1 µM (MC1-R [12]) [%] | Penile Erection ICV [16] | Penile Erection IV [16] | further results |
| --- | --- | --- | --- | --- | --- | --- | --- | --- | --- | --- |
| C[C@@H]1CN(C(=O)[C@H](N)Cc2ccc(Cl)cc2Cl)[C@@H](CCCNC(=N)N)CN1CCc1ccc2ccccc2c1 [Example 11, N-{3-[1-[2(R)-Amino-3-(2,4-dichloro-phenyl)-propionyl]-5(R)-methyl-4-(2-naphthalen-2-yl-ethyl)-piperazin-2(S)-yl]-propyl}-guanidine] | 0.49 | None | 99 | 15.8 | 72 | 65 | 20 | – | – | functional status at MC3-R in cAMP assay (MC3-R [2]): inactive; functional status at MC5-R in cAMP assay (MC5-R [3]): inactive; pEC50 (MC4-R [6]): 7.21; maximal decrease in food intake ([9]; IP): 19%; maximal decrease in food intake ([9]; IV): 87%; maximal decrease in food intake ([10]; 3 mg/kg): 10%; maximal decrease in food intake ([10]; 10 mg/kg): 30%; functional status at MC1-R in cAMP assay (MC1-R [11]): inactive; functional status at MC4-R in cAMP assay (MC4-R [13]; normal system, 1 μM concentration where stated): antagonist |
